The results in this text go back to patent US10308639B2, “Phosphatidylinositol 3-kinase inhibitors” (Gilead Sciences, Inc., priority 2014, dated 2019).

Bounds are passed on as bounds.

Holding throughout (format): biochemical
One assay deals with T1, PI3Kγ (Homo sapiens, UniProt P48736).
T1 construct: made in house
Put plainly: TR-FRET enzymatic activity assay, PI3Kγ. As to conditions: Table 2a; same assay; read-out: PI3Kγ IC50. Summed up: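 Enzymatic activity against the PI3K isoforms was measured using a time-resolved fluorescence resonance energy transfer (TR-FRET) assay.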

The next assay addresses T2, PI3Kβ (Homo sapiens, UniProt P42338).
T2 construct: made in house
Put plainly: TR-FRET enzymatic activity assay, PI3Kβ. To be noted: Table 2a; same assay. Background: TR-FRET usually uses a lanthanide donor and a delayed reading to cut background.

Another assay deals with T3, PI3Kδ (Homo sapiens, UniProt O00329).
T3 construct: made in house
Put plainly: TR-FRET enzymatic activity assay, PI3Kδ. As to conditions: Table 2a; same assay.

T1 sequence (P48736 whole entry): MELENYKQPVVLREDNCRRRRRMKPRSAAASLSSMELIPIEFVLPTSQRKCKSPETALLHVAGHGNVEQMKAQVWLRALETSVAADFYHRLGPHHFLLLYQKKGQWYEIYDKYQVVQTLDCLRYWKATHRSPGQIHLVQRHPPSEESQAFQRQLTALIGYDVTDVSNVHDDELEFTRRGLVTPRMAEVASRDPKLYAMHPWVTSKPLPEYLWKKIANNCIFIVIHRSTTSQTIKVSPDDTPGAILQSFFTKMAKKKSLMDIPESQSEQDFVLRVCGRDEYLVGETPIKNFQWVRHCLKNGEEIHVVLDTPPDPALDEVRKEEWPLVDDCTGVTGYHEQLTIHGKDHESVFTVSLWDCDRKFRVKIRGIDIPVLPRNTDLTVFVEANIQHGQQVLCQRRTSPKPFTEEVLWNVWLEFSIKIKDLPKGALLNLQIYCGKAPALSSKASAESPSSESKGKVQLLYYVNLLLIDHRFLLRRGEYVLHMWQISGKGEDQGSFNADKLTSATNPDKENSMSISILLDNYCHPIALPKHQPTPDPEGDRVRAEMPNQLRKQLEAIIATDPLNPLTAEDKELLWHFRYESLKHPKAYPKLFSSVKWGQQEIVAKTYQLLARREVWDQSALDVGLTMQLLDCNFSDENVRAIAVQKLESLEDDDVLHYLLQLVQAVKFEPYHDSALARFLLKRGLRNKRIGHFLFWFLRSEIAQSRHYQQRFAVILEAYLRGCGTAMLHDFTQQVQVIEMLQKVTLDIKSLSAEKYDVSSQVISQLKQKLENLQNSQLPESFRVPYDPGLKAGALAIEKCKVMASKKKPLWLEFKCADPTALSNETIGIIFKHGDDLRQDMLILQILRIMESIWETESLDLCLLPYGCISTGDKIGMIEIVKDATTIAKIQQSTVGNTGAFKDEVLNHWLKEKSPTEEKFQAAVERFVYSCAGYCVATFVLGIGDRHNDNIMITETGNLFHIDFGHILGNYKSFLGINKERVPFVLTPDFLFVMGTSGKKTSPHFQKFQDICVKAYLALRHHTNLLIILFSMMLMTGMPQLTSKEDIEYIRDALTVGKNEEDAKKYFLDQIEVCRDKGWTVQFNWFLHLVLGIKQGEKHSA
T3 sequence (O00329 whole entry): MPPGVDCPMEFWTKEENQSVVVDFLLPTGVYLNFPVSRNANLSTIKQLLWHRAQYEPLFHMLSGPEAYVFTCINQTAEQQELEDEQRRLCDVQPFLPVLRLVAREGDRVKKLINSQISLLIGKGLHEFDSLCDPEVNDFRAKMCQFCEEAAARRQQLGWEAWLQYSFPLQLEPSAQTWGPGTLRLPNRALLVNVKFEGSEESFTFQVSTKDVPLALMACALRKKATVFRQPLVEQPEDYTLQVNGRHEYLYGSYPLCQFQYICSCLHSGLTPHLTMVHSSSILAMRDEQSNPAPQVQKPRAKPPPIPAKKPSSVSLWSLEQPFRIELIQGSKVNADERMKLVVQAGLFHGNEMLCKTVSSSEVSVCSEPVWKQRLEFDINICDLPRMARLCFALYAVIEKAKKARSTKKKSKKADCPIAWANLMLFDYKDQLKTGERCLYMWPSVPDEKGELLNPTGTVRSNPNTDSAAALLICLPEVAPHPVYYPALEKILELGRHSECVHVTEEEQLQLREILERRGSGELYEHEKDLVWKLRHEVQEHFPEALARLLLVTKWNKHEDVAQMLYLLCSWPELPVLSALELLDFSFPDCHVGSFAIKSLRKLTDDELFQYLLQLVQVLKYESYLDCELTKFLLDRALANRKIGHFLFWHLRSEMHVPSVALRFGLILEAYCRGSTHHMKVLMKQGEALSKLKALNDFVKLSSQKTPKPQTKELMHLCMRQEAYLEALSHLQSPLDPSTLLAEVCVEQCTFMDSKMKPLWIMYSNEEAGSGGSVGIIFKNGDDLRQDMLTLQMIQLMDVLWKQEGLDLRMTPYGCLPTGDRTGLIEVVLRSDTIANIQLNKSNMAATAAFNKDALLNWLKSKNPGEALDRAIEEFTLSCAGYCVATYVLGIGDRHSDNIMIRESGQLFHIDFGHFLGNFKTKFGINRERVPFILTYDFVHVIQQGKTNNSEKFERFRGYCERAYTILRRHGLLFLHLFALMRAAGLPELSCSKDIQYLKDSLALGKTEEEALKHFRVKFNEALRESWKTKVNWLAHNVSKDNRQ
T3 sequence (P27986 whole entry partner): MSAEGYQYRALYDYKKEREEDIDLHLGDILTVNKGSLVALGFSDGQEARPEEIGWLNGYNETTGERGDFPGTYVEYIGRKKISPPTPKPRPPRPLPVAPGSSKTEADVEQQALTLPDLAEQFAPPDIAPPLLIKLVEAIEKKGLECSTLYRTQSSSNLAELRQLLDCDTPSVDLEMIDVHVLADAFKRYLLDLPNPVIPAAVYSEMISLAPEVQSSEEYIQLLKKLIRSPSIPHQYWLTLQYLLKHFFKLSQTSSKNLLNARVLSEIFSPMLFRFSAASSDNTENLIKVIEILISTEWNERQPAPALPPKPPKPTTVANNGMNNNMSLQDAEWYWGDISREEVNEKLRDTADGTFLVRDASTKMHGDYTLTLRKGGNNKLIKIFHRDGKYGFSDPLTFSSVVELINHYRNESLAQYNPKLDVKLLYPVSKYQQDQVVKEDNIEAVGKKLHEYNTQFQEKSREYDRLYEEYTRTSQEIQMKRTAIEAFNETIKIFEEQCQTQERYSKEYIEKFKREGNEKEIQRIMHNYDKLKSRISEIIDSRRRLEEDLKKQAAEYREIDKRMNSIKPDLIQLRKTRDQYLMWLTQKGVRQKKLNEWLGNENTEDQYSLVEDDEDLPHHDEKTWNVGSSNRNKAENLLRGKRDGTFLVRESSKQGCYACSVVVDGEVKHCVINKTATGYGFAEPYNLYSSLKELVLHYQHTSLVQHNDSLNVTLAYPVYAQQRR
T2 sequence (P42338 whole entry): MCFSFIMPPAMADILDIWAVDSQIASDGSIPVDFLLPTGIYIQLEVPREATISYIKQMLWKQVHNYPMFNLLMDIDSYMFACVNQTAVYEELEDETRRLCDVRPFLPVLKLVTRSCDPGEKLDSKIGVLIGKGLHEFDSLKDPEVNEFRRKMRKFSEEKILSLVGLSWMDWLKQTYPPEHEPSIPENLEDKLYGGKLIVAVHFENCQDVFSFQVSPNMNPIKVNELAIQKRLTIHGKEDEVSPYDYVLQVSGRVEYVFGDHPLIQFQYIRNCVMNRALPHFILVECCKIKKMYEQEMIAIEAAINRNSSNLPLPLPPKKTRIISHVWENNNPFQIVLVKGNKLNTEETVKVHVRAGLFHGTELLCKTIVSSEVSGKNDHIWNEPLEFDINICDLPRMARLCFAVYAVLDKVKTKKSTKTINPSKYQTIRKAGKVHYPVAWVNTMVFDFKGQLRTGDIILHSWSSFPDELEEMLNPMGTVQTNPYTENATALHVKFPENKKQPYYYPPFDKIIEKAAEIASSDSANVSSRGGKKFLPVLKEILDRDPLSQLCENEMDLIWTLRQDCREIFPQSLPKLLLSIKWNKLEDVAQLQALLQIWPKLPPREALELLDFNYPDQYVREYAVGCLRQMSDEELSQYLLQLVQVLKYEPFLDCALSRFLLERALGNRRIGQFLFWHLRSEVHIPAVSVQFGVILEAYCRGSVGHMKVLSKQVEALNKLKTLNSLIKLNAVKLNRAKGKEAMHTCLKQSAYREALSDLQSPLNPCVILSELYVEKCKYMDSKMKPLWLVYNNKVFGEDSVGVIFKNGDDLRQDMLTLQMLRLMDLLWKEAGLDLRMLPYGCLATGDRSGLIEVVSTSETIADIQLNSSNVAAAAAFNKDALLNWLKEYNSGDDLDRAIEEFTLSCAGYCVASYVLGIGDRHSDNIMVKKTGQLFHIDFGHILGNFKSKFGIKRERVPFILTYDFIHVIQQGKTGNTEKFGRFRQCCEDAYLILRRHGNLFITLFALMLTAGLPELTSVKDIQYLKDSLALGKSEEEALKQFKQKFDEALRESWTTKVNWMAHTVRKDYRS
T2 sequence (P27986 whole entry partner): as the sequence (P27986 whole entry partner) above

A word on the IC50: it is the point on the concentration scale where inhibition reaches its midpoint. On to `C[C@H](Nc1nc(N)nc(N)c1Cl)c1nc2cccc(Cl)c2c(=O)n1-c1cn[nH]c1` [Compound 157, (S)-5-chloro-2-(1-((2,6-diamino-5-chloropyrimidin-4-yl)amino)ethyl)-3-(1H-pyrazol-4-yl)quinazolin-4(3H)-one], for which the half-inhibitory concentration (IC50) is 1200 nM on PI3Kγ, 15 nM at PI3Kβ and 2 nM at PI3Kδ.
On to `C[C@H](Nc1nc(N)nc(N)c1Cl)c1nc2c(Cl)ccc(Cl)c2c(=O)n1-c1cn[nH]c1` [Compound 158, (S)-5,8-dichloro-2-(1-((2,6-diamino-5-chloropyrimidin-4-yl)amino)ethyl)-3-(1H-pyrazol-4-yl)quinazolin-4(3H)-one], for which the half-maximal inhibitory concentration (IC50) on PI3Kγ is 5200 nM; against PI3Kβ it was 83 nM; at PI3Kδ it was 10 nM.
For `C[C@H](Nc1nc(N)nc(N)c1Cl)c1nc2c(F)ccc(Cl)c2c(=O)n1-c1cn[nH]c1` [Compound 159, (S)-5-chloro-2-(1-((2,6-diamino-5-chloropyrimidin-4-yl)amino)ethyl)-8-fluoro-3-(1H-pyrazol-4-yl)quinazolin-4(3H)-one], the IC50 on PI3Kγ was found to be 1600 nM; on PI3Kβ it was 22 nM; at PI3Kδ, 3 nM.
Turning to `Nc1nc(N)c(Cl)c(N[C@H](c2nc3c(F)cc(F)cc3c(=O)n2-c2cc[nH]n2)C2CC2)n1` [Compound 162, (S)-2-(cyclopropyl((2,6-diamino-5-chloropyrimidin-4-yl)amino)methyl)-6,8-difluoro-3-(1H-pyrazol-3-yl)quinazolin-4(3H)-one], the values for the IC50 on PI3Kγ, against PI3Kβ and against PI3Kδ were 6100 nM, 37 nM and 5 nM, respectively.
In the case of `C[C@H](Nc1ncnc(N)c1Cl)c1nc2cccc(Cl)c2c(=O)n1-c1cc[nH]n1` [Compound 164, (S)-2-(1-((6-amino-5-chloropyrimidin-4-yl)amino)ethyl)-5-chloro-3-(1H-pyrazol-3-yl)quinazolin-4(3H)-one], the half-maximal inhibitory concentration (IC50) on PI3Kγ is 4300 nM; at PI3Kβ, 3 nM; at PI3Kδ, 0.6 nM.
With `Nc1ncnc(N[C@H](c2nc3cccc(Cl)c3c(=O)n2-c2cc[nH]n2)C2CC2)c1Cl` [Compound 165, (S)-2-(((6-amino-5-chloropyrimidin-4-yl)amino)(cyclopropyl)methyl)-5-chloro-3-(1H-pyrazol-3-yl)quinazolin-4(3H)-one], the concentration for half-maximal inhibition (IC50) on PI3Kγ was found to be 4200 nM; against PI3Kβ, 6 nM; on PI3Kδ, 1 nM.
Taken in the same sequence, the figures for `C[C@H](Nc1nc(N)nc(C(F)F)c1C#N)c1nc2cccc(Cl)c2c(=O)n1-c1cc[nH]n1` [Compound 166, (S)-2-amino-4-((1-(5-chloro-4-oxo-3-(1H-pyrazol-3-yl)-3,4-dihydroquinazolin-2-yl)ethyl)amino)-6-(difluoromethyl)pyrimidine-5-carbonitrile] were 680 nM, 16 nM and 8 nM.
Regarding `C[C@H](Nc1ncnc2sncc12)c1nc2cccc(Cl)c2c(=O)n1-c1cc[nH]n1` [Compound 167, (S)-5-chloro-2-(1-(isothiazolo[5,4-d]pyrimidin-4-ylamino)ethyl)-3-(1H-pyrazol-3-yl)quinazolin-4(3H)-one], the values for the half-maximal inhibitory concentration (IC50) on PI3Kγ, at PI3Kβ and at PI3Kδ were greater than 10000 nM, 110 nM and 18 nM, respectively.
As to `C[C@H](Nc1nc(N)nc(N)c1C#N)c1nc2c(F)cc(F)cc2c(=O)n1-c1cc[nH]n1` [Compound 169, (S)-2,4-diamino-6-((1-(6,8-difluoro-4-oxo-3-(1H-pyrazol-3-yl)-3,4-dihydroquinazolin-2-yl)ethyl)amino)pyrimidine-5-carbonitrile], the 50% inhibitory concentration (IC50) worked out at 260 nM on PI3Kγ, 1 nM at PI3Kβ and 0.6 nM against PI3Kδ.
In the case of `N#Cc1c(N)nc(N)nc1N[C@H](c1nc2c(F)cc(F)cc2c(=O)n1-c1cc[nH]n1)C1CC1` [Compound 170, (S)-2,4-diamino-6-((cyclopropyl(6,8-difluoro-4-oxo-3-(1H-pyrazol-3-yl)-3,4-dihydroquinazolin-2-yl)methyl)amino)pyrimidine-5-carbonitrile], the IC50 at PI3Kγ came out at 436 nM; on PI3Kβ it was 3 nM; against PI3Kδ it was 1 nM.
For `C[C@@H](Nc1nc(N)nc(N)c1C#N)c1nc2c(Cl)cc(F)cc2c(=O)n1-c1cc[nH]n1` [Compound 175, (R)-2,4-diamino-6-((1-(8-chloro-6-fluoro-4-oxo-3-(1H-pyrazol-3-yl)-3,4-dihydroquinazolin-2-yl)ethyl)amino)pyrimidine-5-carbonitrile] the same measures were greater than 10000 nM, 19 nM and 13 nM.
Taken in the same sequence, the figures for `C[C@H](Nc1nc(N)nc(C(F)F)c1C#N)c1nc2cccc(C(F)F)c2c(=O)n1-c1cc[nH]n1` [Compound 176, (S)-2-amino-4-(difluoromethyl)-6-((1-(5-(difluoromethyl)-4-oxo-3-(1H-pyrazol-3-yl)-3,4-dihydroquinazolin-2-yl)ethyl)amino)pyrimidine-5-carbonitrile] were 2000 nM, 26 nM and 18 nM.
Consider `N#Cc1c(N[C@H](c2nc3cccc(C(F)F)c3c(=O)n2-c2cc[nH]n2)C2CC2)nc(N)nc1C(F)F` [Compound 177, (S)-2-amino-4-((cyclopropyl(5-(difluoromethyl)-4-oxo-3-(1H-pyrazol-3-yl)-3,4-dihydroquinazolin-2-yl)methyl)amino)-6-(difluoromethyl)pyrimidine-5-carbonitrile], for which the half-maximal inhibitory concentration (IC50) on PI3Kγ amounted to 2300 nM; against PI3Kβ it was 29 nM; against PI3Kδ, 26 nM.
In the case of `C[C@H](Nc1nc(N)nc(C(F)F)c1C#N)c1nc2cccc(C(F)(F)F)c2c(=O)n1-c1cc[nH]n1` [Compound 178, (S)-2-amino-4-(difluoromethyl)-6-((1-(4-oxo-3-(1H-pyrazol-3-yl)-5-(trifluoromethyl)-3,4-dihydroquinazolin-2-yl)ethyl)amino)pyrimidine-5-carbonitrile], the half-maximal inhibitory concentration (IC50) on PI3Kγ was determined as 2240 nM; against PI3Kβ it was 34 nM; at PI3Kδ, 23 nM.
On to `C[C@H](Nc1nc(N)nc(C(F)F)c1C#N)c1nc2cccc(C(F)F)c2c(=O)n1-c1cn[nH]c1` [Compound 179, (S)-2-amino-4-(difluoromethyl)-6-((1-(5-(difluoromethyl)-4-oxo-3-(1H-pyrazol-4-yl)-3,4-dihydroquinazolin-2-yl)ethyl)amino)pyrimidine-5-carbonitrile], for which the 50% inhibitory concentration (IC50) on PI3Kγ is 950 nM; at PI3Kβ, 78 nM; at PI3Kδ it was 27 nM.
Taken in the same sequence, the figures for `C[C@@H](Nc1nc(N)nc(N)c1Cl)c1nc2cccc(C(F)F)c2c(=O)n1-c1cc[nH]n1` [Compound 181, (R)-2-(1-((2,6-diamino-5-chloropyrimidin-4-yl)amino)ethyl)-5-(difluoromethyl)-3-(1H-pyrazol-3-yl)quinazolin-4(3H)-one] were greater than 10000 nM, 65 nM and 77 nM.
Taken in the same sequence, the figures for `C[C@@H](Nc1nc(N)nc(N)c1C#N)c1nc2cccc(C(F)F)c2c(=O)n1-c1cc[nH]n1` [Compound 182, (R)-2,4-diamino-6-((1-(5-(difluoromethyl)-4-oxo-3-(1H-pyrazol-3-yl)-3,4-dihydroquinazolin-2-yl)ethyl)amino)pyrimidine-5-carbonitrile] were 7300 nM, 18 nM and 8 nM.
Regarding `C[C@H](Nc1nc(N)nc(C(F)F)c1C#N)c1nc2c(Cl)cc(F)cc2c(=O)n1-c1cn[nH]c1` [Compound 183, (S)-2-amino-4-((1-(8-chloro-6-fluoro-4-oxo-3-(1H-pyrazol-4-yl)-3,4-dihydroquinazolin-2-yl)ethyl)amino)-6-(difluoromethyl)pyrimidine-5-carbonitrile], the IC50 came to 840 nM at PI3Kγ, 25 nM against PI3Kβ and 9 nM against PI3Kδ.
Taken in the same sequence, the figures for `N#Cc1c(N[C@H](c2nc3c(Cl)cc(F)cc3c(=O)n2-c2cn[nH]c2)C2CC2)nc(N)nc1C(F)F` [Compound 184, (S)-2-amino-4-(((8-chloro-6-fluoro-4-oxo 3-(1H-pyrazol-4-yl)-3,4-dihydroquinazolin-2-yl)(cyclopropyl)methyl)amino)-6-(difluoromethyl)pyrimidine-5-carbonitrile] were 1500 nM, 8 nM and 9 nM.
For `C[C@H](Nc1nc(N)nc(C(F)F)c1C#N)c1nc2c(F)ccc(Cl)c2c(=O)n1-c1cc[nH]n1` [Compound 185, (S)-2-amino-4-((1-(5-chloro-8-fluoro-4-oxo-3-(1H-pyrazol-3-yl)-3,4-dihydroquinazolin-2-yl)ethyl)amino)-6-(difluoromethyl)pyrimidine-5-carbonitrile] the same measures were 1300 nM, 6 nM and 4 nM.
For `C[C@H](Nc1nc(N)nc(C(F)F)c1C#N)c1nc2c(Cl)cccc2c(=O)n1-c1cc[nH]n1` [Compound 188, (S)-2-amino-4-((1-(8-chloro-4-oxo-3-(1H-pyrazol-3-yl)-3,4-dihydroquinazolin-2-yl)ethyl)amino)-6-(difluoromethyl)pyrimidine-5-carbonitrile], the IC50 on PI3Kγ turned out to be 4000 nM; against PI3Kβ, 9 nM; at PI3Kδ, 4 nM.
In the case of `N#Cc1c(C(F)F)nc(N)nc1N1CCC[C@H]1c1nc2cccc(Cl)c2c(=O)n1-c1cc[nH]n1` [Compound 189, (S)-2-amino-4-(2-(5-chloro-4-oxo-3-(1H-pyrazol-3-yl)-3,4-dihydroquinazolin-2-yl)pyrrolidin-1-yl)-6-(difluoromethyl)pyrimidine-5-carbonitrile], the IC50 is greater than 10000 nM on PI3Kγ, 2000 nM against PI3Kβ and 130 nM at PI3Kδ.
Regarding `C[C@H](Nc1nc(N)nc(C(F)F)c1C#N)c1nc2c(Cl)ccc(Cl)c2c(=O)n1-c1cc[nH]n1` [Compound 190, (S)-2-amino-4-((1-(5,8-dichloro-4-oxo-3-(1H-pyrazol-3-yl)-3,4-dihydroquinazolin-2-yl)ethyl)amino)-6-(difluoromethyl)pyrimidine-5-carbonitrile], the half-maximal inhibitory concentration (IC50) was 9900 nM at PI3Kγ, 31 nM on PI3Kβ and 8 nM against PI3Kδ.
